Measurements as given in US5258395A, “Thiazole compounds as inhibitors of SRS-A” (Yamanouchi Pharmaceutical Co., Ltd., priority 1984, dated 1993).
Values belong to the molecule of their own block, whether it stands above or below them.

Assays:
[1] = system: SRS-A-induced contraction of guinea pig ileum; assay: Inhibition of SRS-A-induced contraction of guinea pig ileum; conditions: submaximal concentration of SRS-A (derived from guinea-pig lung), 20 min incubation, read-out: Anti-SRS-A GP ileum IC50
Method: (§1) Initiation of SRS-A- and LTD4 -Induced Contraction of Guinea Pig Ileum and Trachea
(§2) Method: Male Hartley guinea-pigs, weighing 500 to 700 g were killed by a blow on the head. The ileum and tracheal strips prepared according to the method of Constantine (1965) were suspended with 1.0 g tension in an organ bath containing 10 ml of Tyrode's solution equilibrated with a mixture of 95% O2 and 5% CO2 at 37° C. The tissues were equilibrated for 60 min.; during this period the Tyrode solution was replaced every 15 min. and the loading tension was adjusted to 1.0 g. The developed tension of the tissues was measured isometrically with a strain gauge transducer, and recorded on a Recticorder. Both the contractile response of the ileum to submaximal concentration of SRS-A (derived from guinea-pig lung) and the tracheal response to 10^-8 M LTD4 were measured in the absence and then the presence of various concentrations of test compounds. The incubation time of the compounds was 20 min.

[2] = system: LTD4-induced contraction of guinea pig trachea; assay: Inhibition of LTD4-induced contraction of guinea pig trachea; conditions: 10^-8 M LTD4, 20 min incubation, read-out: Anti-LTD4 GP trachea IC50
Method: as §1, §2

[3] = system: SRS-A-mediated anaphylactic asthma; assay: Inhibition of SRS-A-mediated anaphylactic asthma in conscious guinea-pigs; format: in vivo, guinea pig; conditions: for Time to onset of cough / Mortality: 30 min before antigen challenge; for Time to onset of cough: N=8
Method: Inhibition of SRS-A-Mediated Anaphylactic Asthma in Conscious Guinea-Pigs
Method: Male Harley guinea-pigs, weighing 370 to 410 g were passively sensitized by intravenously injecting 1 ml/kg of rabbit […] anti-bovine serum albumin serum (PHA titer: 20480). Twenty-four hours after the sensitization, indomethacine (2 mg/kg), mepyramine (2 mg/kg) and propranolol (0.3 mg/kg) were injected into the saphenous vein 20, 5 and 5 min., respectively, prior to the antigen challenge. Then, animals were placed in an 11 liter chamber connected to a glass nebulizer, and 1% solution of bovin serum albumin was sprayed into the chamber for 30 seconds. The animals were exposed to the antigen aerosol for 2 min. and observed for 15 min. after challenge. The time from the start of inhalation to the onset of cough and the mortality were recorded. Test compounds were orally administered 30 min. before antigen challenge.
^a) Animals were pretreated with mepyramine (2 mg/kg i.v.),
propranolol (0.3 mg/kg i.v.) and indomethacine (2 mg/kg i.v.) 5, 5 and 20
min., respectively, prior to antigen challenge.
^b) Test compound was orally administered 30 min. before antigen

rats = assay: Toxicity, oral administration to rats; format: in vivo; conditions: orally
mice = assay: Toxicity, oral administration to mice; format: in vivo; conditions: orally
SRS-A = conditions: cited from earlier work
[4] = cited from earlier work

SMILES: CCCc1c(OCCCSc2nnc(SCC(=O)O)s2)ccc(C(C)=O)c1O [Example 21, [[5-[[3-(4-acetyl-3-hydroxy-2-propylphenoxy)propyl]thio]-1,3,4-thiadiazol-2-yl]thio]acetic acid]
IC50 [2]: 130 nM
Inhibition of SRS-A-mediated anaphylactic asthma (in words) ([3]; 3 mg/kg p.o.): tended to inhibit the SRS-A-mediated anaphylactic asthma in conscious guinea-pigs, but this effect was not significant
Time to onset of cough ([3]; 3 mg/kg p.o., control 293 ± 22): 377 ± 51 s
Mortality ([3]; 3 mg/kg p.o., control 6/8): 5/8
Inhibition of SRS-A-mediated anaphylactic asthma (in words) ([3]; 10 mg/kg p.o. or higher): significantly inhibited the SRS-A-mediated anaphylactic asthma
Time to onset of cough ([3]; 10 mg/kg p.o., control 281 ± 19, * significant vs control): 397 ± 42 s
Mortality ([3]; 10 mg/kg p.o., control 7/8, * significant vs control): 2/8
Time to onset of cough ([3]; 30 mg/kg p.o., control 281 ± 11, ** p < 0.01 vs control): 457 ± 42 s
Mortality ([3]; 30 mg/kg p.o., control 7/8, * significant vs control): 2/8
minimum fatal dose (rats): more than 1000 mg/kg
minimum fatal dose (mice): more than 1000 mg/kg
IC50 [1]: 60 nM

SMILES: CCCc1c(OCCCSc2nnc(SC(C)CCC(=O)O)s2)ccc(C(C)=O)c1O (stereo not shown) [Example 44, 4-[[5-[[3-(4-Acetyl-3-hydroxy-2-propylphenoxy)propyl]thio]-1,3,4-thiadizol-2-yl]thio]valeric acid]
IC50 [1]: 130 nM

SMILES: CCCc1c(OCCCSc2nnc(SCCCCCC(=O)O)s2)ccc(C(C)=O)c1O [Example 42, 6-[[5-[[3-(4-Acetyl-3-hydroxy-2-propylphenoxy)propyl]thio]-1,3,4-thiadizol-2-yl]thio]hexanoic acid]
IC50 [1]: 130 nM

SMILES: CCCc1c(OCC(O)COc2ccc3c(=O)cc(C(=O)O)oc3c2CCC)ccc(C(C)=O)c1O (stereo not shown) [FPL 55712]
anti-SRS-A activity in isolated tissues (SRS-A): potent anti-SRS-A activity in isolated tissues
biological half life ([4]; in vivo): very short
absorption by oral route ([4]; oral route): very poor

SMILES: CCCc1c(OCCCSc2snc(O)c2C(=O)O)ccc(C(C)=O)c1O [Example 27, 5-[[3-(4-acetyl-3-hydroxy-2-propylphenoxy)propyl]thio]-3-hydroxy-4-isothiazol carboxylic acid]
IC50 [1]: 190 nM

SMILES: CCCc1c(OCCCSc2nnc(SCCCCC(=O)O)s2)ccc(C(C)=O)c1O [Example 41, 5-[[5-[[3-(4-Acetyl-3-hydroxy-2-propylphenoxy)propyl]thio]-1,3,4-thiadiazol-2-yl]thio]valeric acid]
IC50 [1]: 64 nM

SMILES: CCCc1c(OCCCSc2cc(C(=O)O)nc(SC)n2)ccc(C(C)=O)c1O [Example 37, 6-[[3-(4-Acetyl-3-hydroxy-2-propylphenoxy)propyl]thio]-2-methylthio-4-pyrimidinecarboxylic acid]
IC50 [1]: 52 nM

SMILES: CCCc1c(OCCCCCSc2nnc(SCC(=O)O)s2)ccc(C(C)=O)c1O [Example 24, [[5-[[5-(4-Acetyl-3-hydroxy-2-propylphenoxy)pentyl]thio]-1,3,4-thiadiazol-2-yl]thio]acetic acid]
IC50 [1]: 190 nM

The next lines start with the values.

IC50 [1]: 150 nM
SMILES: CCCc1c(OCCCCSc2nnc(SCC(=O)O)s2)ccc(C(C)=O)c1O [Example 23, [[5-[[4-(4-acetyl-3-hydroxy-2-propylphenoxy)butyl]thio]-1,3,4-thiadiazol-2-yl]thio]acetic acid]

IC50 [1]: 91 nM
SMILES: CCCc1c(OCCCSc2nnc(NC(=O)CC(=O)O)s2)ccc(C(C)=O)c1O [Example 33, 3-[[5-[[3-(4-acetyl-3-hydroxy-2-propylphenoxy)propyl]thio]-1,3,4-thiadiazol-2-yl]amino]-3-oxopropionic acid]

IC50 [1]: 140 nM
SMILES: CCCc1c(OCCCSc2nnc(NC(=O)C(=O)O)s2)ccc(C(C)=O)c1O [Example 36, N-[5-[[3-(4-Acetyl-3-hydroxy-2-propylphenoxy)propyl]thio]-1,3,4-thiadizol-2-yl]oxamic acid]

IC50 [1]: 110 nM
SMILES: CCCc1c(OCCCSc2nnc(S)s2)ccc(C(C)=O)c1O [Example 7, 2-Hydroxy-4-[[3-(5-mercapto-1,3,4-thiadiazol-2-yl)thio]propoxy]-3-propylacetophenone]

IC50 [1]: 120 nM
SMILES: CCCc1c(OCCCSc2nnc(SCCC(=O)O)s2)ccc(C(C)=O)c1O [Example 26]

IC50 [2]: 420 nM
IC50 [1]: 160 nM
SMILES: CCCc1c(OCCCSc2nnc(SCC(=O)N(C)O)s2)ccc(C(C)=O)c1O [Example 51, 2-[[5-[[3-(4-acetyl-3-hydroxy-2-propylphenoxy)propyl]thio]-1,3,4-thiadiazol-2-yl]thio]-N-hydroxy-N-methylacetamide]

IC50 [1]: 180 nM
SMILES: CCCc1c(OCCCSc2nnc(N)s2)ccc(C(C)=O)c1O [Example 2, 4-[3-[(5-amino-1,3,4-thiadizol-2-yl)thio]propoxy]-2-hydroxy-3-propylacetophenone]

IC50 [2]: 230 nM
IC50 [1]: 38 nM
SMILES: CCCc1c(OCCCSc2nnc(SCCCC(=O)O)s2)ccc(C(C)=O)c1O [Example 38, 4-[[5-[[3-(4-Acetyl-3-hydroxy-2-propylphenoxy)propyl]thio]-1,3,4-thiadiazol-2-yl]thio]butyric acid]
